Laboratory results reported in patent publication US20210283097A1, “METHODS OF DIAGNOSING AND TREATING ALZHEIMER'S DISEASE WITH S-EQUOL” (Ausio Pharmaceuticals, LLC, priority 2016, published 2021).
Entries after “also recorded” stand apart in the source; their conditions may differ.

Columns and labels:
[1] = Montreal Cognitive Assessment (MoCA) in Alzheimer's disease subjects, single-blind pilot clinical study; format: in vivo, human; settings: for MoCA Visit 2 (Mean + SEM): visit 2 = after two weeks of S-equol 10 mg twice a day; for percent MoCA score change between visit 1 and visit 2 (trend): FIG. 1
Protocol: (§1) Alzheimer's disease subjects were recruited through the University of Kansas Alzheimer's Disease Center (ADC). The ADC maintains a clinical cohort whose routine characterizations include Clinical Dementia Rating (CDR) scale ratings, uniform data set (UDS) cognitive testing, and APOE genotyping. The diagnosis of clinic cohort participants is primarily based on CDR and UDS data, and is determined through a consensus conference that includes subspecialty-trained cognitive neurologists and an expert neuropsychologist. Subjects diagnosed with Alzheimer's disease further meet current criteria for that diagnosis in McKhann et al., Alzheimers Dement, 7 (2011) 263-269.
(§2) To qualify for the study, participants had to be female with very mild (CDR 0.5) or mild (CDR 1) Alzheimer's disease. Each participant was required to have a study partner. As part of the informed consent process, the subjects and study partners were told that during different parts of the study the participants would receive either an S-equol capsule or an inert placebo. The placebo could not be distinguished from the S-equol by sight, touch, or taste so although the investigators knew whether participants at any given point were receiving S-equol or placebo, the participants themselves were blind to the actual treatment. The S-equol and placebo capsule were provided by Ausio Pharmaceuticals, LLC (Cincinnati, Ohio).
(§3) Subjects received a two week supply of medication, which uniformly consisted of placebo, and were instructed to take the study medication twice a day. At the end of this initial two-week period participants returned to the ADC clinical trials unit for their first study visit (visit 1; lead-in evaluation). Visit 1 procedures included an assessment of study medication compliance, vital signs, a query for perceived side effects, the Montreal Cognitive Assessment (MoCA), and a 40 ml phlebotomy; the blood was used to measure platelet mitochondria cytochrome oxidase (COX) and citrate synthase (CS) activities. At the completion of this visit the next two weeks of study medication was dispensed, which uniformly consisted of 10 mg S-equol capsule.
(§4) At the end of this second two-week period participants returned to the ADC clinical trials unit for their second study visit (visit 2; active treatment evaluation). The same procedures were performed during the lead-in evaluation and dispensed the next two weeks of study medication, which at this point uniformly consisted of placebo.
(§5) At the end of this final two-week period the participants returned to the ADC clinical trials unit for their third study visit (visit 3; wash-out evaluation). The lead-in and active treatment evaluation procedures were performed again, which completed participation in this single-blind study.
Secondary outcomes included a safety analysis of the S-equol 10 mg twice per day dose and an analysis of MoCA scores.
In addition to summarizing MoCA scores by means and standard errors, the percent change between visit 1 and visit 2 scores, as well as the percent change between visit 1 and visit 3 scores, was calculated for each participant.

cytochrome oxidase (COX) = settings: brains from ovariectomized mice; cited from earlier work
[2] = tested on: platelet mitochondria cytochrome oxidase (COX); experiment: Platelet mitochondria COX activity referenced to CS activity (COX/CS) in Alzheimer's disease subjects, single-blind pilot clinical study; format: in vivo, human; settings: for COX/CS Visit 2 (Mean + SEM): after two weeks of S-equol 10 mg twice a day
Protocol: as §1, §2, §3, §4, §5
Forty milliliter blood samples were collected in tubes containing acid-citrate-dextrose (ACD) tubes as an anticoagulant, and maintained at room temperature. Within 24 hours of phlebotomy the blood was processed by the ADC Mitochondrial Genomics and Metabolism Core. To initiate the processing procedure, platelets were isolated by centrifugation and enriched mitochondrial fractions prepared using previously described methods. Such procedures involved nitrogen cavitation to rupture platelets followed by centrifugation to collect mitochondria.
The protein concentrations of the enriched mitochondrial fractions were measured using a BCA protein assay kit (BioRad, Hercules, Calif.). COX Vmax activity was determined as a pseudo first order-rate constant (sec−1/mg) by measuring the oxidation of reduced cytochrome c at 550 nm.
In addition to measuring COX activity, each sample's citrate synthase (CS) Vmax activity (nmol/min/mg) was measured. This assay was performed spectrophotometrically by following the formation of 5-thio-2-nitrobenzoate (412 nm) following the addition of 100 μM oxaloacetate at 30° C. […]

[3] = Safety analysis of S-equol 10 mg twice per day in Alzheimer's disease subjects; format: in vivo, human; settings: 10 mg twice per day for two weeks, Alzheimer's disease patients
Protocol: as §3, §4
At the end of this final two-week period the participants returned to the ADC clinical trials unit for their third study visit (visit 3; wash-out evaluation). The lead-in and active treatment evaluation procedures were performed again, which completed participation in this single-blind study. […]

rat hippocampal neurons = settings: cited from earlier work

With `Oc1ccc([C@H]2COc3cc(O)ccc3C2)cc1` [S-equol] the “MoCA Visit 2 (Mean + SEM)” value ([1]; APOE4 Carriers, 8 participants) was 15.8 ± 2.5, the “percent MoCA score change between visit 1 and visit 2 (trend)” value ([1]; APOE4 carriers) was “trended in a downward direction” and the “MoCA Visit 2 (Mean + SEM)” value ([1]; APOE4 non-Carriers, 7 participants) was 13.3 ± 2.1. For the same molecule, the “percent MoCA score change between visit 1 and visit 2 (trend)” value ([1]; APOE4 non-carriers) was “upward direction”, the “difference in mean MoCA scores between visits, or between APOE4 carriers and non-carriers” value ([1]; Table 2) was “No significant differences” and the “MoCA Visit 2 (Mean + SEM)” value ([1]; Total, 15 participants) was 14.6 ± 6.6. The “cytochrome oxidase (COX) activity and COX1 protein levels” value (cytochrome oxidase (COX)) was “increase”, the “COX/CS Visit 2 (Mean + SEM)” value ([2]; APOE4 Carriers, 8 participants) was 4.3E−05 ± 3.5E−06 and the “COX/CS Visit 2 (Mean + SEM)” value ([2]; APOE4 non-Carriers, Outlier Excluded, 6 participants) was 4.7E−05 ± 7.1E−06. For the same molecule, the “COX/CS Visit 2 (Mean + SEM)” value ([2]; APOE4 non-Carriers, Outlier Included, 7 participants) was 9.2E−05 ± 4.6E−05, the “percent COX/CS change between visit 1 and visit 2 (trend), non-APOE4 carriers versus APOE4 carriers” value ([2]; FIGS. 3(A) and 3(B)) was “trended higher” and the “difference in mean COX/CS values between visits, or between APOE4 carriers and non-carriers” value ([2]; Table 3) was “No significant differences”. For the same molecule, the “COX/CS Visit 2 (Mean + SEM)” value ([2]; Total, Outlier Excluded, 14 participants) was 4.5E−05 ± 3.5E−06, the “COX/CS Visit 2 (Mean + SEM)” value ([2]; Total, Outlier Included, 15 participants) was 6.6E−05 ± 2.2E−05 and the “participants with a positive COX/CS response pattern (responders)” value ([2]; slope visit 1 to 2 greater than slope visit 2 to 3, COX activity referenced to CS activity) was 11 of the 15. For the same molecule, the adverse events [3] was “No treatment-related adverse events; also recorded: No adverse events occurred” and the “respiratory and maximal glycolysis fluxes” value (rat hippocampal neurons) was “increase”.
